Measurements reported in PubChem BioAssay AID330 (DTP/NCI, 2004).
Where “and” joins values, the source holds several entries; their conditions need not be identical. Equal values may be shown once. Toxic doses and inconclusive results are not listed. Rule for the calls: active = survival T/C of 150% or more; inactive = T/C below 125% in these data.

Tested on: P388 leukemia ip, CD2F1 mice, survival T/C
Test: NCI In Vivo Anticancer Drug Screen. Data for tumor model P388 Leukemia (intraperitoneal) in CD2F1 (CDF1) mice
Details: endpoint: median survival time, higher = longer survival
Procedure, shortened: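 Mice carrying the transplanted tumor received test compound or vehicle. Survival was recorded in each group, and the value is the treated-group measurement divided by that of the vehicle-treated control group.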

[1] = dose: 50.0 mg/kg/injection, schedule: Q01DX009 (ip), vehicle: saline
[2] = dose: 50.0 mg/kg/injection, schedule: Q04DX003 (ip), vehicle: saline
[3] = dose: 100.0 mg/kg/injection, schedule: Q01DX009 (ip), vehicle: saline with Tween-80
[4] = dose: 25.0 mg/kg/injection, schedule: Q01DX005 (ip), vehicle: saline
[5] = dose: 50.0 mg/kg/injection, schedule: Q01DX009 (ip), vehicle: saline with Tween-80
[6] = dose: 100.0 mg/kg/injection, schedule: Q01DX009 (ip), vehicle: saline
[7] = dose: 200.0 mg/kg/injection, schedule: Q01DX009 (ip), vehicle: saline
[8] = dose: 60.0 mg/kg/injection, schedule: Q01DX005 (ip), vehicle: saline with Tween-80
[9] = dose: 120.0 mg/kg/injection, schedule: Q01DX005 (ip), vehicle: saline with Tween-80
[10] = dose: 240.0 mg/kg/injection, schedule: Q01DX005 (ip), vehicle: saline with Tween-80
[11] = dose: 25.0 mg/kg/injection, schedule: Q01DX009 (ip), vehicle: water
[12] = dose: 50.0 mg/kg/injection, schedule: Q01DX009 (ip), vehicle: water
[13] = dose: 200.0 mg/kg/injection, schedule: Q01DX009 (ip), vehicle: saline with Tween-80
[14] = dose: 12.5 mg/kg/injection, schedule: Q01DX005 (ip), vehicle: saline with Tween-80
[15] = dose: 25.0 mg/kg/injection, schedule: Q01DX005 (ip), vehicle: saline with Tween-80

Measured: T/C

COc1ccc2c(CP(=O)(O)O)cc(=O)oc2c1
inactive: dose: 100.0 mg/kg/injection, schedule: Q01DX001 (ip), vehicle: suspension in saline 99 % of control | dose: 200.0 mg/kg/injection, schedule: Q01DX001 (ip), vehicle: suspension in saline 100 % of control | dose: 400.0 mg/kg/injection, schedule: Q01DX001 (ip), vehicle: suspension in saline 87 % of control

CC(/C=N/N=C(N)N)=N/N=C(N)N
active: [1] 150 % of control | dose: 75.0 mg/kg/injection, schedule: Q01DX009 (ip), vehicle: saline 170 % of control
inactive: dose: 25.0 mg/kg/injection, schedule: Q01DX009 (ip), vehicle: saline 120 % of control | dose: 25.0 mg/kg/injection, schedule: Q04DX003 (ip), vehicle: saline 100 % of control | [2] 100 % of control | [3] 86 % of control

COc1ccc(C(=O)Cc2cc3c(cc2Br)OCO3)cc1OC
inactive: dose: 100.0 mg/kg/injection, schedule: Q01DX001 (ip), vehicle: Klucel (hydroxypropylcellulose) (HPC) 101 % of control | dose: 200.0 mg/kg/injection, schedule: Q01DX001 (ip), vehicle: Klucel (hydroxypropylcellulose) (HPC) 105 % of control | dose: 400.0 mg/kg/injection, schedule: Q01DX001 (ip), vehicle: Klucel (hydroxypropylcellulose) (HPC) 99 % of control

CCCc1c(C(=O)OCCCN(CC)CC)c(C(=O)OCCCN(CC)CC)c(CCC)n1-c1ccccc1
inactive: [4] 105 % of control

Cn1cncc1/C=N\NC(N)=S
inactive: dose: 25.0 mg/kg/injection, schedule: Q01DX009 (ip), vehicle: saline with Tween-80 102 % of control | [5] 88 % of control | [2] 109 % of control | [3] 110 % of control | dose: 100.0 mg/kg/injection, schedule: Q04DX003 (ip), vehicle: saline 102 % of control | dose: 200.0 mg/kg/injection, schedule: Q04DX003 (ip), vehicle: saline 102 % of control

CC(=O)Oc1cc2nc3ccccc3nc2cc1N(C)C
inactive: [1] 99 % of control | [6] 90 % of control | [7] 100 % of control

CSc1ccc(Cl)cc1NC(=O)N(C)C
inactive: dose: 100.0 mg/kg/injection, schedule: Q04DX003 (ip), vehicle: saline with Tween-80 98 % of control | dose: 200.0 mg/kg/injection, schedule: Q04DX003 (ip), vehicle: saline with Tween-80 98 % of control | dose: 400.0 mg/kg/injection, schedule: Q04DX003 (ip), vehicle: saline with Tween-80 96 % of control

[CH3][Sn]([CH3])([S]CCS(=O)(=O)O)[S]CCS(=O)(=O)O
inactive: dose: 15.0 mg/kg/injection, schedule: Q01DX005 (ip), vehicle: saline 120 % of control | dose: 30.0 mg/kg/injection, schedule: Q01DX005 (ip), vehicle: saline 98 % of control | dose: 60.0 mg/kg/injection, schedule: Q01DX005 (ip), vehicle: saline 107 % of control | dose: 120.0 mg/kg/injection, schedule: Q01DX005 (ip), vehicle: saline 121 % of control

Cc1ccc(/C=N/NC(=O)CNC(=O)c2ccccc2)cc1
inactive: [8] 97 % of control | [9] 92 % of control | [10] 97 % of control

C[n+]1cc2ccccc2c2ccccc21
inactive: dose: 3.13 mg/kg/injection, schedule: Q01DX009 (ip), vehicle: saline 108 % of control | dose: 6.25 mg/kg/injection, schedule: Q01DX009 (ip), vehicle: saline 117 % of control | dose: 12.5 mg/kg/injection, schedule: Q01DX005 (ip), vehicle: saline 100 % of control | dose: 12.5 mg/kg/injection, schedule: Q01DX009 (ip), vehicle: saline 120 % of control | [4] 110 % of control | [11] 122 % of control | dose: 50.0 mg/kg/injection, schedule: Q01DX005 (ip), vehicle: saline 101 % of control | [12] 113 % of control

CC(CNc1nc(Nc2ccc(Cl)c(Cl)c2)nc(C(Cl)(Cl)Cl)n1)N(C)C (stereo not drawn)
inactive: dose: 3.13 mg/kg/injection, schedule: Q01DX009 (ip), vehicle: distilled water + Tween-80 109 % of control | dose: 3.13 mg/kg/injection, schedule: Q01DX009 (ip), vehicle: water 90 % of control | dose: 6.25 mg/kg/injection, schedule: Q01DX009 (ip), vehicle: distilled water + Tween-80 118 % of control | dose: 6.25 mg/kg/injection, schedule: Q01DX009 (ip), vehicle: water 99 % of control | dose: 12.5 mg/kg/injection, schedule: Q01DX009 (ip), vehicle: distilled water + Tween-80 98 % of control and 120 % of control | dose: 12.5 mg/kg/injection, schedule: Q01DX009 (ip), vehicle: water 99 % of control | dose: 25.0 mg/kg/injection, schedule: Q01DX009 (ip), vehicle: distilled water + Tween-80 113 % of control and 94 % of control | [11] 101 % of control | dose: 50.0 mg/kg/injection, schedule: Q01DX009 (ip), vehicle: distilled water + Tween-80 109 % of control and 94 % of control | [12] 101 % of control

CCCCCCC(/C=C/c1ccc(Cl)c(Cl)c1)=N\Nc1c(F)c(F)c(F)c(F)c1F
inactive: [5] 86 % of control | [3] 99 % of control | [13] 98 % of control

CC(=NCCCCN=C(C)c1cc(C)ccc1O)c1cc(C)ccc1O
inactive: dose: 50.0 mg/kg/injection, schedule: Q01DX005 (ip), vehicle: Klucel (hydroxypropylcellulose) (HPC) 98 % of control | dose: 100.0 mg/kg/injection, schedule: Q01DX005 (ip), vehicle: Klucel (hydroxypropylcellulose) (HPC) 100 % of control | dose: 200.0 mg/kg/injection, schedule: Q01DX005 (ip), vehicle: Klucel (hydroxypropylcellulose) (HPC) 103 % of control

CCCCCN(C)C12CN3CN(CN(C3)C1)C2
inactive: [1] 103 % of control | [6] 103 % of control | [7] 99 % of control

CN1NC(C)(c2ccccn2)SC1=S (stereo not drawn)
inactive: [5] 98 % of control | [3] 91 % of control | [13] 90 % of control

C=C1CC2(CC(C)CCC2C(C)C)OC1=O (stereo not drawn)
inactive: dose: 100.0 mg/kg/injection, schedule: Q01DX001 (ip), vehicle: saline 97 % of control | dose: 200.0 mg/kg/injection, schedule: Q01DX001 (ip), vehicle: saline 100 % of control | dose: 400.0 mg/kg/injection, schedule: Q01DX001 (ip), vehicle: saline 111 % of control

Oc1c(Cl)cc(Cl)cc1/C=N/NC(=S)Nc1cc(C(F)(F)F)cc(C(F)(F)F)c1
inactive: dose: 12.5 mg/kg/injection, schedule: Q01DX009 (ip), vehicle: olive oil, sesame oil, peanut oil 105 % of control | dose: 25.0 mg/kg/injection, schedule: Q01DX009 (ip), vehicle: olive oil, sesame oil, peanut oil 107 % of control | dose: 50.0 mg/kg/injection, schedule: Q01DX009 (ip), vehicle: olive oil, sesame oil, peanut oil 120 % of control | dose: 50.0 mg/kg/injection, schedule: Q01DX009 (oral), vehicle: saline with Tween-80 92 % of control | dose: 100.0 mg/kg/injection, schedule: Q01DX009 (ip), vehicle: olive oil, sesame oil, peanut oil 86 % of control | dose: 100.0 mg/kg/injection, schedule: Q01DX009 (oral), vehicle: saline with Tween-80 108 % of control | dose: 200.0 mg/kg/injection, schedule: Q01DX009 (oral), vehicle: saline with Tween-80 99 % of control | dose: 400.0 mg/kg/injection, schedule: Q01DX009 (oral), vehicle: saline with Tween-80 90 % of control

Fc1ccc(Nc2nnc(-c3ccc(Cl)cc3Cl)o2)cc1
inactive: [14] 97 % of control | [15] 99 % of control | dose: 50.0 mg/kg/injection, schedule: Q01DX005 (ip), vehicle: saline with Tween-80 93 % of control and 97 % of control | dose: 200.0 mg/kg/injection, schedule: Q01DX005 (ip), vehicle: saline with Tween-80 96 % of control

Nc1ncnc(Nc2ccc(S(N)(=O)=O)cc2)n1
inactive: dose: 5.0 mg/kg/injection, schedule: Q01DX009 (ip), vehicle: Klucel (hydroxypropylcellulose) (HPC) 100 % of control | dose: 10.0 mg/kg/injection, schedule: Q01DX009 (ip), vehicle: Klucel (hydroxypropylcellulose) (HPC) 97 % of control | dose: 20.0 mg/kg/injection, schedule: Q01DX009 (ip), vehicle: Klucel (hydroxypropylcellulose) (HPC) 100 % of control

Oc1cc2c(cc1C(c1ccc(F)cc1)N1CCCCC1)OCO2 (stereo not drawn)
inactive: [8] 111 % of control | [9] 116 % of control | [10] 115 % of control

CC(=O)OCC1=C(c2ccccc2)S(=O)(=O)c2ccccc2C1=O
inactive: [14] 108 % of control | [15] 106 % of control

CCCCCC(C)(Cl)CCCCC
inactive: [6] 101 % of control | [7] 106 % of control | dose: 400.0 mg/kg/injection, schedule: Q01DX009 (ip), vehicle: saline 106 % of control
